Assay results taken from patent US4962109A, “Insecticidally and acaricidally active pyrimidine esters and intermediates therefor” (Imperial Chemical Industries PLC, priority 1985, dated 1990).
Like-named read-outs stand apart in the source and are kept apart here.

What was measured:
Assay type in all cases: in vivo
[1] = tested on: Spodoptera exigua (lesser army worm - larvae); test: Residual test on lesser army worm larvae (SP), Cotton leaf, mortality; conditions: 48 h, 500 ppm, residual, read-out: SP grading of mortality
How it was run: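 Product dissolved in acetone and diluted in water with 0.01% wetting agent to 500, 250 or 100 ppm; larvae and/or cotton leaf host treated. Mortality or knockdown scored one to three days later and graded A (80-100%), B (50-79%) or C (<50%).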

Myzus persicae (aphids) = test: Contact test on aphids (MP), Chinese Cabbage leaf, mortality; conditions: 72 h, 500 ppm, contact, 3 days, read-out: MP grading of mortality
How it was run: (§1)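 Compound dissolved in acetone, diluted with water containing 0.01% by weight wetting agent to 500, 250 or 100 ppm. Pests held on host plant or foodstuff; pests and/or medium treated. Mortality scored one to three days later as grade A (80-100%), B (50-79%) or C (<50%) mortality or knockdown.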

[2] = tested on: Musca domestica (houseflies - adults); test: Knockdown test on houseflies - adults (MD/KD), Cotton wool/sugar; conditions: 500 ppm, 4 hours, read-out: MD/KD grading of knockdown
How it was run: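 Adult houseflies exposed to the compound at 500, 250 or 100 ppm in acetone/water with 0.01% wetting agent, on a cotton wool/sugar medium. Knockdown and mortality assessed, graded A (80-100%), B (50-79%) or C (<50%).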

[3] = tested on: Heliothis virescens (tobacco budworm - larvae); test: Residual test on tobacco budworm larvae (HV), Cotton leaf, mortality; conditions: 48 h, read-out: HV grading of mortality
How it was run: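 Product in acetone diluted with water containing 0.01% Lissapol NX, at 500, 250 or 100 ppm; pests and/or host medium (here cotton leaf) treated. Mortality scored one to three days later, graded A (80-100%), B (50-79%), C (<50%).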

[4] = tested on: Tetranychus urticae (spider mites - ova); test: Contact test on spider mites - ova (TUe), French bean leaf, mortality; conditions: 144 h, 500 ppm, contact, 6 days, read-out: TUe grading of mortality
How it was run: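 Graded read-out: A 80-100%, B 50-79%, C below 50% mortality or knockdown, assessed usually 1-3 days post-treatment. Liquid preparations at 500, 250 or 100 ppm by weight, from acetone solution diluted in water with 0.01% wetting agent, applied to pests and/or their host plant or food medium.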

[5] = tested on: Diabrotica balteata (rootworm larvae); test: Residual test on rootworm larvae (DB), Filter paper/maize seed, mortality; conditions: 48 h, 500 ppm, residual, read-out: DB grading of mortality
How it was run: as §1

[6] = tested on: Tetranychus urticae (spider mites - adult); test: Contact test on spider mites - adult (TUa), French bean leaf, mortality; conditions: 72 h, 500 ppm, contact, 3 days, read-out: TUa grading of mortality
How it was run: as §1

[7] = tested on: Nilaparvata lugens (brown plant hopper); test: Contact test on brown plant hopper (NL), Rice plant, mortality; conditions: 72 h, 3 days, read-out: NL grading of mortality
Protocol: (§2) The activity of the Product was determined using a variety of insect pests. The Product was used in the form of liquid preparations containing 500, 250 or 100 parts per million (ppm) by weight of the Product. The preparations were made by dissolving the Product in acetone and diluting the solutions with water containing 0.01% by weight of a wetting agent sold under the trade name "LISSAPOL" NX until the liquid preparations contained the required concentration of the Product. "Lissapol" is a Registered Trade Mark.
(§3) The test procedure adopted with regard to each pest was basically the same and comprised supporting a number of the pests on a medium which was usually a host plant or a foodstuff on which the pests feed, and treating either or both the pests and the medium with the preparations. The mortality of the pests was then assessed at periods usually varying from one to three days after the treatment.
(§4) The results of the tests are given in Table III for each of the Products, at the rate in parts per million given in the second column as a grading of mortality designated as A, B or C wherein A indicates 80-100% mortality or knockdown, B indicates 50-79% mortality or knockdown and C indicates less than 50% mortality or knockdown.

[8] = tested on: Musca domestica (houseflies - adults); test: Contact test on houseflies - adults (MD), Cotton wool/sugar, mortality; conditions: 500 ppm, contact, read-out: MD grading of mortality
How it was run: as §1

[9] = tested on: Blattella germanica (cockroach nymphs); test: Residual test on cockroach nymphs (BG/R), Plastic pot, mortality; conditions: 72 h, 3 days, read-out: BG/R grading of mortality
Protocol: as §2, §3, §4
BG/R Blattella germanica

[10] = tested on: Nephotettix cincticeps (green leaf hopper - nymphs); test: Contact test on green leaf hopper nymphs (NC), Rice plant, mortality; conditions: 500 ppm, contact, read-out: NC grading of mortality
How it was run: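 Product dissolved in acetone, diluted in water with 0.01% wetting agent to 500, 250 or 100 ppm; nymphs and/or host rice plants treated. Mortality or knockdown assessed 1–3 days later, graded A (80-100%), B (50-79%), C (<50%).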

[11] = 24 h, ** test duration of 1 day
[12] = 72 h, * test duration of 3 days

Structure (SMILES) | mortality at 500 ppm ([1]; * test duration of 3 days) [%] | mortality at 500 ppm (Myzus persicae (aphids)) [%] | pest or weed control at 500 ppm [2] [%] | mortality at 500 ppm [3] [%] | mortality at 500 ppm [4] [%] | mortality at 500 ppm ([5]; * test duration of 3 days) [%] | mortality at 500 ppm [6] [%] | mortality at 500 ppm [7] [%] | mortality at 500 ppm [8, 11] [%] | mortality at 500 ppm [9] [%] | mortality at 500 ppm [10, 12] [%] | mortality at 500 ppm ([1]; 2 days) [%] | mortality at 500 ppm ([10]; 48 h, 2 days) [%] | mortality at 500 ppm ([5]; 2 days) [%] | mortality at 500 ppm ([8]; 72 h, 3 days) [%]
COCc1c(F)c(F)c(COC(=O)C(c2cnc(C(F)(F)F)nc2)C(C)C)c(F)c1F (racemic) [Compound 116, 2,3,5,6-tetrafluoro-4-(methoxymethyl)benzyl (RS)-2-(2-trifluoromethylpyrimidin-5-yl)-3-methylbutanoate] | 80 to 100 | 80 to 100 | 80 to 100 | 80 to 100 | 80 to 100 | 80 to 100 | 80 to 100 | 80 to 100 | 80 to 100 | 80 to 100 | – | – | – | – | –
CCC(C(=O)OCc1c(F)c(F)c(C)c(F)c1F)c1cnc(C(C)(C)C)nc1 (racemic) [Compound 122, 2,3,5,6-tetrafluoro-4-methyl (RS)-2-[2-(1,1-dimethylethyl)pyrimidin-5-yl]butanoate] | 80 to 100 | 80 to 100 | 80 to 100 | 80 to 100 | < 50 | 50 to 79 | 80 to 100 | < 50 | 80 to 100 | < 50 | – | – | – | – | –
C=CCc1c(F)c(F)c(COC(=O)C(c2cnc(C(Cl)(Cl)Cl)nc2)C(C)C)c(F)c1F (racemic) [Compound 117, 2,3,5,6-tetrafluoro-4-(prop-2-en-1-yl)benzyl (RS)-2-(2-trichloromethylpyrimidin-5-yl)-3-methylbutanoate] | 80 to 100 | 80 to 100 | 80 to 100 | 80 to 100 | 80 to 100 | 50 to 79 | 80 to 100 | 80 to 100 | 80 to 100 | 80 to 100 | – | – | – | – | –
C=CCc1c(F)c(F)c(COC(=O)C(CC)c2cnc(C(C)(C)C)nc2)c(F)c1F (racemic) [Compound 123, 2,3,5,6-tetrafluoro-4-(prop-2-en-1-yl)benzyl (RS)-2-[2-(1,1-dimethylethyl)pyrimidin-5-yl]butanoate] | 80 to 100 | 80 to 100 | 80 to 100 | 80 to 100 | 80 to 100 | < 50 | 80 to 100 | 80 to 100 | 80 to 100 | 50 to 79 | – | – | – | – | –
COCc1c(F)c(F)c(COC(=O)C(c2cnc(Cl)nc2)C(C)C)c(F)c1F (racemic) [Compound 118, 2,3,5,6-tetrafluoro-4-(methoxymethyl)benzyl (RS)-2-(2-chloropyrimidin-5-yl)-3-methylbutanoate] | 50 to 79 | 80 to 100 | – | 50 to 79 | < 50 | < 50 | 50 to 79 | < 50 | 80 to 100 | < 50 | – | – | – | – | –
Cc1c(F)c(F)c(COC(=O)C(c2cnc(C(C)(C)C)nc2)C(C)(C)C)c(F)c1F (racemic) [Compound 4, 2,3,5,6-tetrafluoro-4-methylbenzyl (RS)-2-[2-(1,1-dimethylethyl)pyrimidin-5-yl]-3,3-dimethylbutanoate] | 80 to 100 | 80 to 100 | 80 to 100 | 80 to 100 | < 50 | 80 to 100 | 80 to 100 | – | 80 to 100 | 50 to 79 | 80 to 100 | – | – | – | –
CC(C)(C)c1ncc(C(C(=O)OCc2c(F)c(F)c(Cc3ccccc3)c(F)c2F)C(C)(C)C)cn1 (racemic) [Compound 17, 4-benzyl-2,3,5,6-tetrafluorobenzyl (RS)-2-[2-(1,1-dimethylethyl)pyrimidin-5-yl]-3,3-dimethylbutanoate] | – | < 50 | < 50 | < 50 | < 50 | – | 50 to 79 | – | – | < 50 | – | < 50 | < 50 | 80 to 100 | < 50
COCc1c(F)c(F)c(COC(=O)C(c2cnc(C(C)(C)C)nc2)C(C)(C)C)c(F)c1F (racemic) [Compound 15, 2,3,5,6-tetrafluoro-4-(methoxymethyl)benzyl (RS)-2-[2-(1,1-dimethylethyl)pyrimidin-5-yl]-3,3-dimethylbutanoate] | 80 to 100 | 80 to 100 | 80 to 100 | 80 to 100 | 80 to 100 | 80 to 100 | 80 to 100 | – | 80 to 100 | 50 to 79 | 80 to 100 | – | – | – | –
CC(C)(C)c1ncc(C(C(=O)OCc2ccc(F)c(Oc3ccccc3)c2)C2CC2)cn1 (racemic) [Compound 125, 4-fluoro-3-phenoxybenzyl (RS)-2-[2-(1,1-dimethylethyl)pyrimidin-5-yl]-2cyclopropylacetate] | 80 to 100 | 80 to 100 | 50 to 79 | 80 to 100 | < 50 | 80 to 100 | 80 to 100 | – | 50 to 79 | < 50 | 80 to 100 | – | – | – | –
C[C@@H](OC(=O)[C@@H](c1cnc(C(C)(C)C)nc1)C1CC1)c1cccc(Oc2ccccc2)n1 (racemic) [Compound 90, (RS)-1-(6-phenoxypyrid-2-yl)ethyl (RS)-2-[2-(1,1-dimethylethyl)pyrimidin-5-yl]-2-cyclopropylacetate] | 80 to 100 | 80 to 100 | 80 to 100 | 80 to 100 | < 50 | 80 to 100 | 80 to 100 | – | 80 to 100 | 80 to 100 | 80 to 100 | – | – | – | –
COCc1c(F)c(F)c(COC(=O)C(c2cnc(C)nc2)C(C)(C)C)c(F)c1F (racemic) [Compound 120, 2,3,5,6-tetrafluoro-4-(methoxymethyl)-benzyl (RS)-2-(2-methylpyrimidin-5-yl)-3,3-dimethylbutanoate] | – | 80 to 100 | 80 to 100 | 80 to 100 | < 50 | – | 80 to 100 | – | – | < 50 | – | 80 to 100 | 80 to 100 | < 50 | 80 to 100
